In US7049321B2, “Methods and pharmaceutical compositions for treatment of central and peripheral nervous system disorders and compounds useful therefor” (Israel Institute for Biological Research, priority 2002, dated 2006):
Entries after “also recorded” stand apart in the source; their conditions may differ.

Experiments:
M1 mAChR = target: T1, M1 mAChR (Rattus norvegicus, UniProt P08482); experiment: α-APPs secretion in cell cultures stably transfected with the M1 mAChR; type: cell-based; settings: for Emax: read-out: α-APPs secretion, % of maximal response of carbachol
T1 construct: expressed in transfected cells; elsewhere rat pheochromocytoma cells
T1 sequence (P08482 1-460): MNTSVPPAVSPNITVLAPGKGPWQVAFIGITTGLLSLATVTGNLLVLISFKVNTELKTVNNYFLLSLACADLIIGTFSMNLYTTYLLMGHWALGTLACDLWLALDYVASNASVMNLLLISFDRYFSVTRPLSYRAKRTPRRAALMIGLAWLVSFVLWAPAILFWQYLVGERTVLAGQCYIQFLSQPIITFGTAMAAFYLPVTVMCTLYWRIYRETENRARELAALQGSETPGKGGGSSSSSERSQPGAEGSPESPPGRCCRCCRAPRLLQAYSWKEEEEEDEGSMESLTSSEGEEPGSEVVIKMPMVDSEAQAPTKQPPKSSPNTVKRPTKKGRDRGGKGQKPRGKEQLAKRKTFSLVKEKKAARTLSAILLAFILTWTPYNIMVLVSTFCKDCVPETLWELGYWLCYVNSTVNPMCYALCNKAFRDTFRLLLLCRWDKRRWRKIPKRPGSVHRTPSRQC
Protocol: Cells were plated in 6 well culture plates and used at the age of 3–5 days after plating. […] Cells exposed to medium alone are referred as controls.
Cell supernatants were collected into Eppendorff tubes containing a cocktail of protease inhibitors (5 units/ml aprotinin, […], […] and 10^−4M Phenylmethylsulfonylfluoride (PMSF, a protease inhibitor); Sigma, USA). The collected media were concentrated with Centricon tubes (Amicon, Beverly, Mass., USA) and kept frozen for α-APPs secretion determination. Equal amounts of protein (50–100 μg) were loaded and separated on 10% sodium dodecyl sulfate-polyacrylamide gel electrophoresis (SDS-PAGE). Followed by western blotting onto nitrocellulose membrane, blocked by fat-free milk, and probed for 24 hours at 4° C., with anti-Alzheimer's precursor protein, A4 monoclonal antibody 22C11 (0.25 μg/ml; Boehringer Mannheim, Germany). The nitrocellulose membranes were washed and incubated for 2 hours at room temperature with peroxidase-linked goat anti-mouse IgG antibodies (Jackson Immunoresearch, USA), followed by extensive washout and staining with enhanced chemiluminescence detection system (Amersham). Quantitative evaluation of the immunoreactive bands, on the exposed films, was performed by video-imaging densitometry (Gel-aid software; Galai Co., Israel). APPs levels were expressed as x-fold increase over basal levels.

[1] = test system: Rat pheochromocytoma cells transfected with M1 mAChR; experiment: Neurite outgrowth response; type: cell-based; settings: for Emax: Rattus norvegicus, read-out: Maximal response, percent of cells with neurites
Protocol: Rat pheochromocytoma cells transfected with M1 mAChR cells were grown as described in Gurwitz et al, (NeuroReport 6, 485,1995). For determination of neurite outgrowth, cells plated in six-well plates were used 3–5 days after-plating. Growth factors were added 1 day after plating and muscarinic agonists were added for the last 24 hrs.
Cells were observed under an inverted microscope. The percent of cells with neurite longer than cell diameter were scored in three random fields of several hundred cells from each well. Results were expressed as a percent of cells with neurites. Treatments were performed in triplicate cells. Both NGF (50 ng/ml) and EGF (100 ng/ml) were added 1 day after plating. Muscarinic agonists were added 24 hours before scoring.

[2] = test system: Rat pheochromocytoma cells transfected with M1 mAChR; type: cell-based; settings: for Cell death induced by β-A25-35: β-A25-35 (1 μM), 24 hrs, serum-deprived
Protocol: Confluent rat pheochromocytoma cells transfected with the M1 mAChR cultures were detached with trypsin, washed and plated in 24-well, 6-well, 60-mm or 100-mm plates that were precoated with rat tail collagen (Sigma, Israel). Several experiments were performed in serum-free medium. For 3-(4,5-dimethylthiazol-2-yl)-2,5-diphenyl-tetrazolium bromide (MTT) assay, cells (1.5×10^4) were plated in 96-well collagen-precoated plates, in serum-free medium, with or without various drugs for 24 hours. For differentiation, cells were grown in the presence of 1% FCS and 1% HS, with addition of 50 ng/ml NGF for 7 days, to cause full differentiation. […] After 7 days, cells were washed and the medium was either replaced to serum-free, or cells were detached and replated in serum-free medium. Cells in serum-free medium were treated either with Aβ peptides that were previously “aged” or with H2O2. Tested compounds were added together with the insults for the indicated time, unless otherwise stated.
Cells were plated in 96-well plates in 100 μl medium. After exposure to various treatments, 10 μl of 5 mg/ml MTT [3-(4,5-dimethylthiazol-2-yl)-2,5-diphenyl-tetrazolium bromide; Sigma, Israel] solution in phosphate-buffered saline (PBS) was added to each well. Plates were incubated for 2 hrs at 37° C. followed by hydrocholoric acid-isopropanol addition (100 μl of 0.04N HCl/isopropanol). Plates were read using ELISA reader at a wavelength of 570 nm.
The MTT assay measures primary early changes within the cells, reflecting the integrity of the electron transport chain and provides a readout of cellular redox activity. This test is a specific, early indicator of the mechanism of β-amyloid-mediated cell death and can be used to detect rapid inhibitory response.

[3] = test system: cells transfected with M1 mAChR; experiment: Protection from H2O2-induced toxicity; type: cell-based, rat
trihexyphenidyl rats = experiment: Passive avoidance in trihexyphenidyl-treated rats; type: in vivo, Wistar rats; settings: for Retention latency: 24 h; for Effect on passive avoidance: AF292 0.03, 0.05, 0.1, 0.3, 0.5 mg/kg p.o., AF267B 0.5, 1, 5; for MED: p.o.
Text: Trihexyphenidyl is a selective M1 muscarinic antagonist that crosses the blood brain barrier and induces memory and learning impairments (Bymaster et al. J Pharmacol Exp Ther 267: 16–24, 1993. Roldan et al Neurosci. Lett. 230: 93–96, 1997; Kimura et al Brain Res. 834: 6–12, 1999).
Naive Wistar rats were used in the experiments below. The passive avoidance (PA) task is comprised of training (acquisition) phase and a retention phase. In the training procedure each rat was individually placed in the small illuminated compartment and after 60 sec. of familiarization/adaptation, the door to the large compartment was opened and the latency to enter was measured (Initial Latency). Immediately following entry into the dark compartment, the door was closed and inescapable foot shock (0.6 mA for 3 sec) was delivered through the grid floor. A cutoff point of 180 sec was used for initial latency. […] After the acquisition trial the rat was returned to its home cage. Retention of the passive avoidance task was measured 24 h later, by again placing the rat in the light compartment and after a 60 sec adaptation interval, the door was opened and the latency to re-enter the dark compartment was measured. A cutoff point of 300 sec was used for retention latency.

[4] = Pharmacokinetic study in rats; type: in vivo; settings: rat; for AUC(0-inf) / Cmax / MRT / Tmax / half-life: plasma, Rats; for biovailability in rats: in vivo
Text: The results of the PK profile of AF292 in rats and Beagle dogs (overnight fasting; drug administered in water solution; gavage) are listed in Table 1.

AF64A-injected rats = experiment: Passive avoidance in AF64A-treated rats; settings: for Retention latency: 72 h after training; for Minimal effective dose: p.o.
[5] = oral, extrapolated for 10 mg/kg

## CC[C@@H]1SC2(CCN(C)CC2)NC1=O [AF267B, (S)-2-ethyl-8-methyl-1-thia-4,8-diaza-spiro[4.5]decan-3-one]
M1 mAChR
  EC50: 3 µM
  α-APPs secretion, % of maximal response of carbachol: equal to maximal response of carbachol
  Emax: 100%
M1 mAChR; 10^−4M, maximal increase
  α-APPs secretion, fold increase over control: about 6 fold
[1]
  Emax: 60%
[2]
  MTT assay against Aβ 25–35 & H2O2 in cell cultures transfected with rat M1 mAChR: 100%
  Cell death induced by β-A25-35: significantly attenuated
[3]
  Protection from H2O2-induced toxicity: protect the cells
Trihexyphenidyl rats; 0.5 mg/kg p.o.
  Retention latency: 181.1 ± 35.4 s
Trihexyphenidyl rats; 1 mg/kg p.o.
  Retention latency: 290.1 ± 8.5 s
Trihexyphenidyl rats
  Effect on passive avoidance: 0.5, 1, 5 positive effects
  MED: MED 0.1–0.5 mg/kg, p.o.
[4]; [5]
  AUC(0-inf): 1550 ng·h/mL
  Cmax: 1700 ng/mL
[4]; po, 5 mg/kg
  AUC(0-inf): 773 ng·h/mL
  Cmax: 852 ng/mL
  MRT: 60 min
  Tmax: 15 min
  half-life: 38.4 min
AF64A-injected rats; 0.03 mg/kg p.o.
  Retention latency: 105.7 ± 31.9 s
AF64A-injected rats; 0.1 mg/kg p.o.
  Retention latency: 440.7 ± 46.4 s
AF64A-injected rats
  Minimal effective dose: less than 0.1 mg/kg

## CC1=NCC2(CCN(C)CC2)S1 [AF150(S), 2,8-Dimethyl-1-thia-3,8-diaza-spiro[4.5]dec-2-ene]
M1 mAChR
  Emax: 50%
[1]
  Emax: 30%
[2]
  Cell death induced by β-A25-35: significantly attenuated
[3]
  Protection from H2O2-induced toxicity: protect the cells
Trihexyphenidyl rats; 5 mg/kg p.o.
  Retention latency: 222 ± 25.6 s
[4]
  biovailability in rats: 31%

## CC[C@@H]1SC2(CCNCC2)NC1=O [AF292, (S)-2-Ethyl-1-thia-4,8-diaza-spiro[4.5]decan-3-one]
M1 mAChR
  EC50: 3 µM
  α-APPs secretion, comparison in words: as effective as AF267B; also recorded: Equipotent with AF267B &
  Emax: 100%
[1]; blocked by atropine
  Neurotrophic effect: neurotrophic
[2]
  MTT assay against Aβ 25–35 & H2O2 in cell cultures transfected with rat M1 mAChR: Equipotent with AF267B & CCh at 100 μM; Even
  Cell death induced by β-A25-35: significantly attenuated
[3]
  Protection from H2O2-induced toxicity: protect the cells
Trihexyphenidyl rats
  Effect on passive avoidance: positive effects
  MED: < 0.03 mg/kg
Trihexyphenidyl rats; rat, in vivo
  Duration of action: LONG DURATION OF ACTION
  Potency among the tested agonists: most potent compound among the tested agonists
[4]
  biovailability in rats: 49%
[4]; po, 10 mg/kg
  AUC(0-inf): 2150 ng·h/mL
  Cmax: 1910 ng/mL
  MRT: 90 min
  Tmax: 30 min
  half-life: 59.4 min
AF64A-injected rats; 1mg/kg p.o.
  Retention latency: 447 ± 46.8 s
AF64A-injected rats
  Minimal effective dose: below 1 mg/kg
